Test results taken from patent US8222260B2, “Substituted 6-anilinopurine derivatives as inhibitors of cytokinin oxidase/dehydrogenase and preparations containing these derivatives” (Univerzita Palackego V Olomouci, priority 2007, dated 2012).
“Also recorded” adds a separate entry of the source.

Columns and labels:
[1] = tested on: Human diploid fibroblasts HCA; test: Anti-aging activity: senescence-associated beta-galactosidase in human fibroblasts; type: cell-based
Experimental: In this example, effects of the compounds of this invention on the activity of a senescence biomarker senescence-associated β-galactosidase was studied. Human diploid fibroblasts HCA of various passage levels were used for this purpose. The tested compounds were added to the medium at each passage. After the incubation period, cells were washed with PBS and fixed with 2% formaldehyde and 0.2% glutaraldehyde in PBS. After another wash with PBS, they were incubated with the staining solution comprising potassium ferricyanide (5 mM), potassium ferrocyanide (5 mM), MgCl2 (2 mM), X-gal (5-bromo-4-chloro-3-indolyl-β-D-galactopyranoside) (1 mg/ml), in citric/phosphate buffer (pH 6.0) at 37° C. (without CO2) for at least 1 hour. Following the incubation period, the numbers of cells expressing senescence-associated β-galactosidase (blue cells) were counted using light microscope.

[2] = tested on: Rat C6 glioma (ATCC No. CCL107); test: Anti-inflammatory activity: isoproterenol-induced cAMP synthesis (ELISA); type: cell-based; conditions: cAMP after 30 min, induced by (−)-isoproterenol
Experimental: Anti-inflammatory activity of several of the substituted 6-anilinopurine derivatives of this invention was determined; kinetin was also evaluated as a control. Rat C6 glioma (ATCC No. CCL107) was cultivated in monolayer in serum-free chemically defined medium containing Ham's F10/minimal essential medium (1:1 v/v), 2 mM L-glutamine, 1% (v/v) minimal essential medium vitamins (100×), 1% (v/v) minimal essential medium nonessential amino acids (100×), 100 U/ml penicillin, […], and 30 nM sodium selenite. Incubation was performed at 37° C. in a 100% humidified atmosphere. The assays were performed in the logarithmic growth phase at a density of 2.5×10^5 cells/cm^2. Intracellular cAMP synthesis was induced by addition of 5 mM (−)-isoproterenol; various amounts of test compounds were added at the same time as the (−)-isoproterenol. After 30 min incubation, the cellular amount of cAMP was determined using ELISA (cAMP-enzyme immunoassay kit from Amersham). The I50 values were determined from the dose-response curve in duplicate.

[3] = tested on: 35S:AtCKX1 and 35S:AtCKX2 tobacco seedlings; test: Foliar spray of CKX overproducing tobacco seedlings grown in soil, phenotype complementation and root system; type: in vivo
Experimental: (§1) Transgenic 35S:AtCKX1 Arabidopsis and 35S:AtCKX1 and 35S:AtCKX2 tobacco seedlings grown in soil in the greenhouse were systematically treated with 10 μM of compound 12. Areal parts of the wild type and transgenic seedlings were sprayed every second day for 1 month with aqueous solution of compound 12 containing 0.01% Silwet L-77 wetting agent.

[4] = tested on: Transgenic 35S:AtCKX1 Arabidopsis seedlings; test: Foliar spray of CKX overproducing Arabidopsis seedlings grown in soil, phenotype complementation; type: in vivo; conditions: 10 μM sprayed every second day for 1 month
Experimental: as §1

[5] = tested on: Human diploid fibroblasts BJ; test: Viability of human diploid fibroblasts by MTT assay; type: cell-based; conditions: 0-25 μM, 72 hours, BJ passage 19
Experimental: MTT is a standard colorimetric assay for measurement of proliferation and survival of the cells. Yellow MTT is reduced into violet formazan in metabolically active cells. The amount of the resulting formazan is measured by spectrophotometry. Human diploid fibroblasts BJ (passage 19) were seeded in 96-well plate (5.000 cells per well). After 6 hours, the cultivation medium (DMEM containing 5 g/l glucose, 2 mM glutamine, 100 U/ml penicillin, 100 μg/ml streptomycin and 10% fetal calf serum) was removed and fresh medium containing a test compound in concentrations 0-25 μM was added. Each concentration was tested in 5 replicates. MTT was added to the cells after 72 hours into final concentration of 0.5 mg/ml. Incubation time was 3 hours.

[6] = tested on: Senescent human diploid fibroblasts SNF25; test: Effect on senescent human diploid fibroblasts (cell number); type: cell-based; conditions: 0-12.5 μM, days 7 and 14, SNF25 passage 53
Experimental: Senescent human diploid fibroblasts SNF25 (passage 53) were seeded in 24-well plate (10.000 cells/well). The cultivation medium (DMEM containing 5 g/l glucose, 2 mM glutamin, 100 U/ml penicillin, […] streptomycin and 10% fetal calf serum) was removed and replaced with the cultivation medium containing test compound in concentration range of 0-12.5 μM. Each concentration was tested in triplicate. The cell numbers were determined on days 7 and 14.

[7] = tested on: Human diploid fibroblasts BJ; test: Attachment frequency test (adherence of fibroblasts); type: cell-based; conditions: 0-25 μM, attached cells counted after 6 hours, BJ passage 19
Experimental: Attachment frequency test is one of the methods for evaluation of acute toxicity of compounds against adherent cells. The tested compound is added into the medium with a defined number of trypsinised cells and after certain time the number of attached cells is counted. Human diploid fibroblasts BJ (passage 19) and standard cultivation medium (DMEM with 5 g/l glucose, 2 mM glutamin, 100 U/ml penicillin, 100 μg/ml streptomycin and 10% fetal calf serum) were used. The attached cells were counted after 6 hours. The experiment was done in three repetitions. […] Thus the compound doesn't show acute toxicity against fibroblasts.

SMILES: c1coc(CNc2ncnc3nc[nH]c23)c1 [Kinetin, 6-furfurylaminopurine, reference compound]
- Senescent Cells (%) HCA passage 25 ([1]; passage 25, cells expressing senescence-associated beta-galactosidase): 3%
- Senescent Cells (%) HCA passage 50 ([1]; passage 50, cells expressing senescence-associated beta-galactosidase): 5%
- Senescent Cells (%) HCA passage 80 ([1]; passage 80, cells expressing senescence-associated beta-galactosidase): 38%
- Effect (anti-inflammatory activity) [2]: inactive; also recorded: Not active

SMILES: COc1cccc(Nc2nc(Cl)nc3nc[nH]c23)c1 [Compound 12, 2-Chloro-6-(3-methoxyanilino)purine]
- complementation of wild-type phenotype (release from growth inhibition) ([3]; 35S:AtCKX1 and 35S:AtCKX2 tobacco, 10 μM sprayed every second day for 1 month): restauration of wild type phenotype
- effect of foliar application on root system ([3]; transgenic tobaccos, foliar application, 10 μM): enhancement of the root system
- complementation of wild-type phenotype (release from growth inhibition) [4]: restauration of wild type phenotype

SMILES: Clc1nc(Nc2ccccc2)c2[nH]cnc2n1 [Compound 1, 2-Chloro-6-anilinopurine]
- viability of cells (MTT) [5]: not toxic for human diploid fibroblasts
- cell number (cell survival) [6]: does not exert significant negative effect on cell survival
- Attachment percentage [7]: not significantly influenced
